This test relates to immunoglobulin light chain protein WIL-FL T46L. Nature of the test: Differential scanning fluorimetry (thermal shift) assay. Format: binding. The note with it: Table A; temperature shift [Tm]compound-[Tm]vehicle; recombinant WIL-FL T46L.

The record followed here is patent US20260285857A1, “BICYCLIC AND HETEROCYCLIC AMIDE COMPOUNDS” (priority 2024, published 2026).

Regarding `C[C@]1(c2ccccc2)CCN(c2cc(CO)c3nc(C(=O)NC4CC5(CCC5N5CC6C(C5)C6C(=O)O)C4)nn3c2)C1` (stereo partly drawn) [Compound 346], the DSF entry is on record as “***** (>2.5° C.=*****)”. To `C[C@@]1(c2ccccc2)CCN(c2cc(CO)c3nc(C(=O)N4CC5CN(c6cccc(C(=O)O)n6)CC5C4)nn3c2)C1` (stereo partly drawn) [Compound 347] belongs “***** (>2.5° C.=*****)”; to `CNC(=O)c1nc2c(CNC(C)=O)cc(N3CC[C@](C)(c4ccccc4)C3)cn2n1` [Compound 348], “***** (>2.5° C.=*****)”; to `CCS(=O)(=O)NCc1cc(N2CC[C@](C)(c3ccccc3)C2)cn2nc(C(=O)NC)nc12` [Compound 349], “***** (>2.5° C.=*****)”. With `CC(C)(O)CNC(=O)c1nc2c(CO)cc(N3CC[C@](C)(c4ccccc4)C3)cn2n1` [Compound 350], the DSF result is reported as “***** (>2.5° C.=*****)”.

Consider `CNC(=O)c1nc2c(CO)cc(N3CC[C@](C)(c4ccccc4)C3)cn2n1` [Compound 351], for which the DSF entry is on record as “***** (>2.5° C.=*****)”. Under `C[C@]1(c2ccccc2)CCN(c2cc(CO)c3nc(C(=O)N[C@@H]4CCOC4)nn3c2)C1` [Compound 352] stands “***** (>2.5° C.=*****)”.

Consider `Cc1cc(N2CC[C@](C)(c3ccccc3)C2)cn2nc(C(=O)N3CCC4(CC3)COCC4N3CC4C(C3)C4C(=O)O)nc12` (stereo partly drawn) [Compound 353], for which the DSF result is “***** (>2.5° C.=*****)”. Regarding `Cc1cc(N2CC[C@](C)(c3ccccc3)C2)cn2nc(C(=O)NC3CC(N4CC5C(C4)C5C(=O)O)C3)nc12` (stereo partly drawn) [Compound 354], the DSF entry is reported as “***** (>2.5° C.=*****)”. To `Cc1cc(N2CC[C@](C)(c3ccccc3)C2)cn2nc(C(=O)N3CCCC4(CC(N5CC6C(C5)C6C(=O)O)CO4)C3)nc12` (stereo partly drawn) [Compound 355] belongs “***** (>2.5° C.=*****)”. Regarding `Cc1cc(N2CC[C@](C)(c3ccccc3)C2)cn2nc(C(=O)NC3CC4(C3)CC(N3CC5C(CC(=O)O)C5C3)C4)nc12` (stereo partly drawn) [Compound 356], the DSF entry is on record as “***** (>2.5° C.=*****)”. Under `COC(=O)CC1C2CN(C3CC4(CC(NC(=O)c5nc6c(C)cc(N7CC[C@](C)(c8ccccc8)C7)cn6n5)C4)C3)CC12` (stereo partly drawn) [Compound 357] stands “***** (>2.5° C.=*****)”; under `Cc1cc(N2CC[C@](C)(c3ccccc3)C2)cn2nc(C(=O)NC3CC4(C3)CC(N3CCOC(C(=O)O)C3)C4)nc12` (stereo partly drawn) [Compound 358], “***** (>2.5° C.=*****)”; under `Cc1cc(N2CC[C@](C)(c3ccccc3)C2)cn2nc(C(=O)NC3CC4(C3)OCC4N3CCC(C(=O)O)CC3)nc12` (stereo partly drawn) [Compound 359], “***** (>2.5° C.=*****)”. Under `COC(=O)C1CCN(C2COC23CC(NC(=O)c2nc4c(C)cc(N5CC[C@](C)(c6ccccc6)C5)cn4n2)C3)CC1` (stereo partly drawn) [Compound 360] stands “***** (>2.5° C.=*****)”. Under `Cc1cc(N2CC[C@](C)(c3ccccc3)C2)cn2nc(C(=O)NC3CC(N4C[C@@H](O)[C@@H](O)C4)C3)nc12` (stereo partly drawn) [Compound 361] stands “***** (>2.5° C.=*****)”. With `Cc1cc(N2CC[C@](C)(c3ccccc3)C2)cn2nc(C(=O)NC3CC(N4C[C@H](O)[C@@H](O)C4)C3)nc12` (stereo partly drawn) [Compound 362], the DSF entry is reported as “***** (>2.5° C.=*****)”.

As for `Cc1cc(N2CC[C@](C)(c3ccccc3)C2)cn2nc(C(=O)NC3CC4(C3)CC(N3C[C@H](F)[C@@H](F)C3)C4)nc12` (stereo partly drawn) [Compound 363], the DSF result is given as “***** (>2.5° C.=*****)”. To `Cc1cc(N2CC[C@](C)(c3ccccc3)C2)cn2nc(C(=O)NC3CC4(C3)CC(N3CC5C(C3)C5C(=O)O)C4)nc12` (stereo partly drawn) [Compound 364] belongs “***** (>2.5° C.=*****)”; to `Cc1cc(N2CC[C@](C)(c3ccccc3)C2)cn2nc(C(=O)NC3CCC(N4CC5C(C4)C5C(=O)O)C3)nc12` (stereo partly drawn) [Compound 365], “***** (>2.5° C.=*****)”. Under `Cc1cc(N2CC[C@](C)(c3ccccc3)C2)cn2nc(C(=O)N3CCC(N4CC5C(C4)C5C(=O)O)CC3)nc12` (stereo partly drawn) [Compound 366] stands “***** (>2.5° C.=*****)”.
